This test concerns the target T1, MdesOR115 (with MdesOrco; HEK293/TMO/MdesOR115) (Mayetiola destructor, UniProt A0A1D8GZG1).
T1 construct: with Odorant receptor coreceptor
T1 sequence (A0A1D8GZG1 1-412): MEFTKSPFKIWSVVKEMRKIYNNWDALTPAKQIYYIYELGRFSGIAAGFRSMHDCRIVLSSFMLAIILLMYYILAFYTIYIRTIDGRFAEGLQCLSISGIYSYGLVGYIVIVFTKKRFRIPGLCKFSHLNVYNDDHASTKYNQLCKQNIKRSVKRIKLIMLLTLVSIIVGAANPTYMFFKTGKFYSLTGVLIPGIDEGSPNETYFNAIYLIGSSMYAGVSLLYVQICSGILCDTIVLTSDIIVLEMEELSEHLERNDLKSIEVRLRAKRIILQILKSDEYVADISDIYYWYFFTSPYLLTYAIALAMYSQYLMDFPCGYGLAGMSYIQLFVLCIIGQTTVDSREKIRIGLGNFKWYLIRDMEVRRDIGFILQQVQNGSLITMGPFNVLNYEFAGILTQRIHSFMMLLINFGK
T1 sequence (A0A1D8GZG0 1-466 partner): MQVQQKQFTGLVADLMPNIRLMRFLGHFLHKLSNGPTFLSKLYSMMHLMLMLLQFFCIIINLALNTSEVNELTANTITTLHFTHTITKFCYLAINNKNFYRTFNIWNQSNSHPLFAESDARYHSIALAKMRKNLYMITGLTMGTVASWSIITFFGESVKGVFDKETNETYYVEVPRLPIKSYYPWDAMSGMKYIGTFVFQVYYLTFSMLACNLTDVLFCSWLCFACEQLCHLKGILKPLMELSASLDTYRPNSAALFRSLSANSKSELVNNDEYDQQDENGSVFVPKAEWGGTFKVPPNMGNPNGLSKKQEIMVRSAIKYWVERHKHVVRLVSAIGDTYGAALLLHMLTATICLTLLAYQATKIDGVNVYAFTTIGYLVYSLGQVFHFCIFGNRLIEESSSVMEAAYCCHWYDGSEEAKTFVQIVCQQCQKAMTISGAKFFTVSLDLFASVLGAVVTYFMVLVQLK
Nature of the test: fluorescent calcium assay, HEK293 cells, dose-response. Format: cell-based.

pEC50: −log10 of the molar value.

For the compound `CC/C=C/C=C/CCCCC[C@H](C)OC(C)=O` [2S-8E,10E-13:OAc, (2S,8E,10E)-8,10-tridecadien-2-yl acetate], the pEC50 (as a rule, the negative decadic logarithm of the EC50, by convention in mol/L) is 5.43 to 5.69.

These data come from article PMC5013046, “A Sex Pheromone Receptor in the Hessian Fly Mayetiola destructor (Diptera, Cecidomyiidae)” (Frontiers in Cellular Neuroscience, 2016).
